Measurements: patent publication US9114149B2, “[CU(thp)4]n[X]-n compounds for the treatment of a broad range of human solid tumors, including refractory tumors” (Universita Degli Studi Di Padova, priority 2011, dated 2015)
Where “and” joins values, the source holds several entries; their conditions need not be identical. Identical values can stand only once. Marks after values point to notes of the source that are not given here.

Assays:
U1810 = assay: MTT cytotoxicity, U1810 (lung); type: cell-based, human; conditions: MTT test, 72 hrs
From the text: (§1) The in vitro antitumor activity of CP had been deeply evaluated in several human cancer cell lines by in vitro cytotoxicity assays. CP cytotoxicity has been detected in a large panel of human cell lines derived from a wide variety of solid tumors, including refractory tumors. In Table 1, the cytotoxicity parameters IC50 (that is the median growth inhibitory concentrations calculated from dose-survival curves via MTT test) are tabulated.
(§2) Cell lines representative of lung (H157, U1810, U1285, Calu-1), pancreas (MIA PaCa-2, BxPC-3, AsPC-1, Capan-1), liver (Huh-7, Hep 3B, SK-Hep-1), oesophagus (OE33, OE21), oesophagus/gastric cardia (OE19), stomach (BGC-823, AGS), colon (HCT-116, T84, COLO 205), breast (MDA-MB-231, SK-BR-3), cervix (CaSki, C-33 A) ovarian (A2780, SK-OV-3, IGROV1), prostate (LnCaP, PC-3) cancers along with melanoma (MEWO, G361, C-32), neuroblastoma (SH-SY5Y, SK-N-AS, IMR-32) and osteosarcoma (U-2 OS, MG-63) have been treated with increasing concentration of CP for 72 hrs.

Calu-1 = assay: MTT cytotoxicity, Calu-1 (lung); type: cell-based, human; conditions: MTT test, 72 hrs
From the text: as §1, §2

MIA PaCa-2 = assay: MTT cytotoxicity, MIA PaCa-2 (pancreas); type: cell-based, human; conditions: MTT test, 72 hrs
From the text: as §1, §2

BxPC-3 = assay: MTT cytotoxicity, BxPC-3 (pancreas); type: cell-based, human; conditions: MTT test, 72 hrs
From the text: as §1, §2

Huh-7 = assay: MTT cytotoxicity, Huh-7 (liver); type: cell-based, human; conditions: MTT test, 72 hrs
From the text: as §1, §2

OE19 = assay: MTT cytotoxicity, OE19 (oesophagus/gastric cardia); type: cell-based, human; conditions: MTT test, 72 hrs
From the text: as §1, §2

BGC-823 = assay: MTT cytotoxicity, BGC-823 (stomach); type: cell-based, human; conditions: MTT test, 72 hrs
From the text: as §1, §2

AGS = assay: MTT cytotoxicity, AGS (stomach); type: cell-based, human; conditions: MTT test, 72 hrs
From the text: as §1, §2

COLO 205 = assay: MTT cytotoxicity, COLO 205 (colon); type: cell-based, human; conditions: MTT test, 72 hrs
From the text: as §1, §2

SH-SY5Y = assay: MTT cytotoxicity, SH-SY5Y (brain); type: cell-based, human; conditions: MTT test, 72 hrs
SK-N-AS = assay: MTT cytotoxicity, SK-N-AS (brain); type: cell-based, human; conditions: MTT test, 72 hrs
C-33 A = assay: MTT cytotoxicity, C-33 A (cervix); type: cell-based, human; conditions: MTT test, 72 hrs
From the text: as §1, §2

PC-3 = assay: MTT cytotoxicity, PC-3 (prostate); type: cell-based, human; conditions: MTT test, 72 hrs
From the text: as §1, §2

[1] = system: Lewis lung carcinoma (LLC); assay: Early-stage treatment of LLC-bearing mice; type: in vivo, C57BL mice; conditions: for Average tumor weight (mean ± S.D.) / Inhibition of tumor growth: early-stage; for Average tumor weight (mean ± S.D.): day 15; for Inhibition of tumor growth: day 15, referred to control
Protocol: Body weight was measured every two days and was taken as a parameter of systemic toxicity. The X axis indicates the days after transplantation whereas the Y axis indicates the percentage of body weight changes. […] The error bars indicate the SD.
The antitumor efficacy of CP was evaluated in a model of solid tumor, the syngeneic murine Lewis Lung Carcinoma (also indicated as LLC). […] Body weight of tumor-bearing mice has been measured every two days simultaneously with antitumor analyses and was taken as a parameter of systemic toxicity.
LLC was implanted intramuscularly (i.m., 2×10^6 cells inoculum) into the right hind leg of 8-week old inbred C57BL mice (24±3 g body weight) and, after 24 h from tumor implantation, mice were randomly divided into five groups (8 animals per group, 10 controls). CP was dosed at 25, 35 and 50 mk/kg i.p. on days 3, 5, 7, 9, 11 and 13 after tumor implantation. […] At day 15, animals were sacrificed, and the inhibition of tumor growth was evaluated.

[2] = system: human colon adenocarcinoma cells sensitive (HCT-116); assay: Cross resistance MTT test, HCT-116 (OXP sensitive); type: cell-based; conditions: 72 h, probit analysis
BALB/c mice = assay: Acute toxicity tests in healthy BALB/c mice; type: in vivo; conditions: for LD50: BALB/c mice, observed 24 hrs
Protocol: The acute toxicity was assessed by treating BALB/c or C57BL mice with a single intraperitoneal (i.p.) or endovenous (e.v.) administration of different amounts, i.e. 3.125, 6.25, 12.5, 25, 50, 100 and 200 mg/kg of tested compounds.
To preliminarily establish the toxicity profile of CP, acute and repeat-dose toxicity studies were performed in BALB/c mice and in C57BL mice.

[3] = Tissue distribution (Cu content) in LLC bearing mice; type: in vivo, C57BL mice; conditions: 50 mg/kg i.p., 24 hrs; Cu by atomic absorption, treated versus control (FIG. 4)
Protocol: Mice were inoculated […]. on the right flank with 2×10^6 LLC cells. After 10 days, CP was administered i.p. at a dose of 50 mg/kg. The mice were sacrificed after 24 hours and tumor (indicated with 1), brain (indicated with 2), spleen (indicated with 3), kidney (indicated with 4), intestine (indicated with 5), liver (indicated with 6) and stomach (indicated with 7) were excised. Tissues were washed in ice-cold saline and weighed after removing excess fluid. All samples were mineralized in HNO3 and Cu content in each sample was measured by atomic absorption spectrophotometry. The Y axis indicates the ratio of copper amount in treated versus control mice.
To assess the potential selectivity to the solid tumor mass, tissue distribution of CP was investigated in LLC bearing C57BL mice. Biodistribution studies are very helpful in assessing the ability of a molecule to traverse multilayers of cells. Chemotherapy of solid tumors often fails because adequate cytotoxic concentrations are not achieved due to poor penetration and non-uniform distribution of the drug.
To assess the potential selectivity to the solid tumor mass, tissue distribution of [Cu(thp)4][PF6] (CP) was investigated in LLC bearing C57BL mice. On day 10 after tumor implantation, mice were treated with a single i.p. injection of 50 mg/kg of CP.

[4] = system: human leukemic cell lines; assay: Cytotoxicity against human leukemic cell lines; type: cell-based; conditions: several human leukemic cell lines
From the text: The detection of drug uptake by tumor cells in animal models clearly attest that CP efficiently and selectively accumulates in the solid tumor mass.

[5] = system: human cancer cell lines derived from solid tumors; assay: MTT cytotoxicity, whole panel of human solid tumor cell lines; type: cell-based; conditions: Table 1 panel, maximum
From the text: as §1, §2
In colon, liver, brain, ovary and prostate cell line panels IC50 values in the submicromolar range have been obtained.

Solubility in water = type: physicochemical
[6] = system: human cancer versus human normal cells
[7] = 1.5 mg/kg ip days 3, 5, 7, 9, 11, 13
[8] = 35 mg/kg ip days 3, 5, 7, 9, 11, 13
[9] = 50 mg/kg ip days 3, 5, 7, 9, 11, 13
[10] = human non-tumor versus malignant cells

## N.N.[Cl][Pt][Cl] [CDDP, cis-diamminodichloro platinum(II)]
U1810
  IC50: 3240 ± 1920 nM
Calu-1
  IC50: 9650 ± 2130 nM
MIA PaCa-2
  IC50: 25900 ± 2750 nM
BxPC-3
  IC50: 11500 ± 2510 nM
Huh-7
  IC50: 3240 ± 960 nM
OE19
  IC50: 7450 ± 1370 nM
BGC-823
  IC50: 3210 ± 1000 nM
AGS
  IC50: 6330 ± 1790 nM
COLO 205
  IC50: 33100 ± 2680 nM
SH-SY5Y
  IC50: 5160 ± 1230 nM
SK-N-AS
  IC50: 18100 ± 1580 nM
C-33 A
  IC50: 7420 ± 1980 nM
PC-3
  IC50: 1570 ± 1130 nM
[1]; early-stage LLC mice, 1.5 mg/kg, after the sixth administration (FIG. 1)
  body weight loss: about 30%
[1]; [7]
  Average tumor weight (mean ± S.D.): 0.168 ± 0.10 g
  Inhibition of tumor growth: 73.66%

## F[P-](F)(F)(F)(F)F.OC[P+](CO)(CO)[Cu-3]([P+](CO)(CO)CO)([P+](CO)(CO)CO)[P+](CO)(CO)CO [CP, [Cu(thp)4][PF6]]
U1810
  IC50: 760 ± 1020 nM
Calu-1
  IC50: 910 ± 450 nM
MIA PaCa-2
  IC50: 2450 ± 970 nM
BxPC-3
  IC50: 1340 ± 1110 nM
Huh-7
  IC50: 760 ± 310 nM
OE19
  IC50: 1660 ± 940 nM
BGC-823
  IC50: 1080 ± 660 nM
AGS
  IC50: 1140 ± 780 nM
COLO 205
  IC50: 650 ± 30 nM
SH-SY5Y
  IC50: 660 ± 120 nM
SK-N-AS
  IC50: 940 ± 750 nM
C-33 A
  IC50: 3260 ± 1570 nM
PC-3
  IC50: 980 ± 970 nM
[2]
  IC50: 1400 ± 500 nM
BALB/c mice; BALB/c and C57BL mice (Table 5)
  LD50 relative to that recorded with CDDP: about one order of magnitude higher
BALB/c mice; single e.v. administration
  LD50: 135^b mg/kg
BALB/c mice; single i.p. administration
  LD50: 150^a mg/kg
[1]; early-stage LLC mice, even at the highest doses (FIG. 1)
  body weight loss compared with the non-treated group: no significant body weight loss
[1]; 25 mg/kg ip days 3, 5, 7, 9, 11, 13
  Average tumor weight (mean ± S.D.): 0.473 ± 0.12 g
[1]; 25 mg/kg ip days 3, 5, 7, 9, 11, 13, 25 mg/kg
  Inhibition of tumor growth: 26% and 25.86%
[1]; [8]
  Average tumor weight (mean ± S.D.): 0.273 ± 0.04 g
  Inhibition of tumor growth: 57.21%
[1]; [9]
  Average tumor weight (mean ± S.D.): 0.113 ± 0.04 g
  Inhibition of tumor growth: 82.28%
[3]
  CP concentration in solid tumor mass: highest CP concentration
  copper drug in brain: No copper drug was detected
  copper drug in intestinal tract: very little
[4]
  cytotoxicity against human leukemic cell lines: high cytotoxicity
[5]
  fold more cytotoxic than CDDP: up to 50 fold
  fold more cytotoxic than OXP: ≤ 30 fold
Solubility in water
  solubility in water: excellent solubility in water
[6]; average IC50 towards normal cells divided by average IC50 for the malignant cells
  Selectivity index (SI): 32.4
[6]; [10]
  SI fold higher than CDDP: about 2 fold
  SI fold higher than OXP: ~3 fold
